Test results reported in BindingDB's records for doi:10.1021/jm00114a027 (Research Biochemicals, 1991).

Assay: Compound was tested for binding affinity to dopamine reuptake sites in the tissue homogenates prepared from […] striatum using [3H]CFT as radioligand

Compound	IC50 [µM]
COC(=O)[C@@H]1C2CC[C@H](C[C@@H]1c1ccc(I)cc1)N2C	0.0016
COC(=O)C1C(c2ccc(I)cc2)CC2CCC1N2C [(3S,5R)-methyl 3-(4-iodophenyl)-8-methyl-8-aza-bicyclo[3.2.1]octane-2-carboxylate]	0.088
